Measured values as given in patent US20090133153A1, “Polypeptide participating in pyridoxine biosynthesis, polynucleotide encoding the polypetide and those uses” (Genomine, Inc, priority 2004, published 2009).

Experiments:
[1] = system: T2 Arabidopsis thaliana transformant (anti-sense AtPDX4); assay: Pyridoxine auxotrophy test: T2 seeds of anti-sense AtPDX4 transformant on MS medium with pyridoxine; type: in vivo; conditions: 2.5 mg/L pyridoxine-HCl; for seeds germinated to grow: MS medium with 12 mg/L PPT
Method: Arabidopsis thaliana was cultivated in a soil-filled pot or cultivated in a petri dish by using MS medium (Murashige and Skoog salts, Sigma, U.S.A.) containing 2% sucrose (pH 5.7) and 0.8% agar. In this study, vitamin B6 group (including pyridoxine) was excluded from the vitamin mixture used in the MS medium. The culture pot was incubated at 22° C. in a growth chamber and controlled by 16/8 hours of light and dark cycle. Meanwhile, in order to investigate whether the plant transformant becomes pyridoxine auxotroph mutant or not after transformed with anti-sense construct against AtPDX4 gene, T2 seed of Arabidopsis thaliana transformant was collected from T1 transformant and cultivated to estimate the reaction by adding pyridoxine. Above all, MS medium containing 12 mg/L PPT (phosphinothricine, Duchefa, Netherlands) was prepared and T2 seeds were treated at a low temperature (4° C.) for 3 days. 120 of T2 seeds were cultivated respectively on 2 (total 4) petri dishes of MS media (30 seeds per petri dish) with or without 2.5 mg/L of pyridoxine-HCl (Sigma, USA), so as to select T2 Arabidopsis thaliana transformant.

[2] = system: T2 Arabidopsis thaliana transformant (anti-sense AtPDX4); assay: Phenotype recovery of T2 anti-sense AtPDX4 transformant by vitamin B6's; type: in vivo; conditions: 0.5 mg/L, 7 days
Method: Arabidopsis thaliana was cultivated in a soil-filled pot or cultivated in a petri dish by using MS medium (Murashige and Skoog salts, Sigma, U.S.A.) containing 2% sucrose (pH 5.7) and 0.8% agar. In this study, vitamin B6 group (including pyridoxine) was excluded from the vitamin mixture used in the MS medium. The culture pot was incubated at 22° C. in a growth chamber and controlled by 16/8 hours of light and dark cycle.
Above all, in order to select T2 Arabidopsis transformant, MS medium containing 12 mg/L PPT (phosphinothricine, Duchefa, Netherlands) was prepared and T2 seeds were treated at a low temperature (4° C.) for 3 days. 120 of T2 seeds were cultivated on petri dishes containing MS media with or without 0.5 mg/L of pyridoxine-HCl (Sigma, USA), pyridoxamine-2HCl (Sigma, USA), pyridoxal-HCl (Sigma, USA) or pyridoxal-5-phosphate (Sigma, USA).

Cc1ncc(CO)c(CO)c1O [pyridoxine, 2-methyl-3-hydroxy-4,5-di(hydroxymethyl)pyridine]
phenotype compared with wild type Arabidopsis thaliana ([1]; 7 days): not to change in the phenotype remarkably
phenotype compared with wild type Arabidopsis ([1]; 19 days): not to change in the phenotype such as growth retardation
seeds germinated to grow ([1]; 7 days): 22 seeds
seeds germinated to grow ([1]; 19 days): 24 seeds
phenotype of plant transformant [2]: not to change in the phenotype remarkably
seeds germinated to grow ([2]; MS medium with 12 mg/L PPT): 26 seeds
